Data published in publication PMC4783701 (Scientific Reports, 2016).
≈ marks a conversion by molar mass, not a printed value. Where “and” joins values, the source holds several entries; their conditions need not be identical. Equal values may be shown once.

What was measured:
[1] = test system: multiple subtypes of influenza virus, including H1N1, H3N2, H5N1, H7N7, H7N9, and H9N2; type: cell-based, influenza A virus; conditions: all tested subtypes; for inhibition of viral replication: serial-diluted compound
influenza H1N1 virus [2] = type: cell-based, influenza A virus
H1N1 virus = assay: microbe, parasite or virus in culture; type: cell-based; conditions: Influenza A virus, H1N1, MDCK, 24 h
H7N9 virus = type: cell-based, influenza A virus; conditions: MDCK, MOI 0.002, 24 h post-infection
H9N2 virus = assay: microbe, parasite or virus in culture; type: cell-based; conditions: Influenza A virus, H9N2, MDCK, 24 h
[3] = molecular target: PAN endonuclease (N-terminal domain of the PA subunit) (Influenza A virus, UniProt P03433); type: biochemical
influenza H1N1 virus [4] = type: cell-based, influenza A virus; remark: listed apart in the source
H5N1 virus = assay: microbe, parasite or virus in culture; type: cell-based; conditions: Influenza A virus, H5N1, MDCK, 24 h
PAN protein = PAN protein (Influenza A virus, UniProt P03433); assay: biochemical; type: binding
influenza H1N1 virus [5] = assay: microbe, parasite or virus in culture; type: cell-based, influenza A virus; conditions: for IC50: Influenza A virus, H1N1, MDCK
H3N2 virus = type: cell-based, influenza A virus; conditions: MDCK, MOI 0.002, 24 h post-infection
H7N7 virus = assay: microbe, parasite or virus in culture; type: cell-based; conditions: Influenza A virus, H7N7, MDCK, 24 h
MTT cytotoxicity assay = type: cell-based, canine; conditions: dog, MDCK cells
Method: Selectivity index (SI) of each compound was defined as the ratio of CC50 over IC50. CC50 value was determined with MTT assay according to the manufacturer’s protocol (Invitrogen), while IC50 data was obtained by plaque reduction assay. Both assays were done in MDCK cells and values were calculated using Sigma plot 12.0 (SPSS).

Solubility in PBS = type: physicochemical; conditions: read-out: solubility limitation
[6] = molecular target: influenza polymerase activity (PB1, PB2, PA, NP) (Influenza A virus, UniProt P03433); type: cell-based

## O=C1N=c2ccccc2=C1NNC1=NC(=O)/C(=C2/C(=O)Nc3ccccc32)S1 [ANA-0, (5Z)-2-[2-(2-oxoindol-3-yl)hydrazinyl]-5-(2-oxo-1H-indol-3-ylidene)-1,3-thiazol-4-one]
[1]; 20 μM
  suppression of virus replication: more than 3 logs
[1]
  inhibition of viral replication: inhibited viral replication of all tested subtypes of influenza virus in a dose-dependent manner
Influenza H1N1 virus [2]
  reduction in supernatant viral titer: 2–3 log
H1N1 virus
  IC50: < 1000 nM
H7N9 virus
  concentration required for similar inhibition relative to H1N1 and H9N2: 5 fold and > 5 fold
H9N2 virus
  IC50: < 1000 nM
[3]
  IC50 compared with that of DPBA: lower IC50s
Influenza H1N1 virus [4]
  antiviral efficacy when added during virus absorption (-1 h) and then removed: did not exert antiviral efficacy
  intracellular and supernatant vRNA when added at 1 h p.i. and maintained: significant decrease of viral RNAs
  intracellular viral mRNA production: reduced the viral mRNA production
  vRNAs in cell lysates: subsequent decrease of vRNAs in cell lysates
H5N1 virus
  IC50: ~2500 nM
PAN protein
  Kd: 1100 nM
Influenza H1N1 virus [5]
  Selectivity Index (CC50/IC50): > 500
  IC50: 800 ± 100 nM
H3N2 virus
  concentration required for similar inhibition relative to H1N1 and H9N2: 5 fold and > 5 fold
H7N7 virus
  IC50: ~2500 nM
MTT cytotoxicity assay
  CC50: > 400 µM
Solubility in PBS
  solubility: 1000 µg/mL (≈ 2570 µM)
[6]
  luciferase activity (viral polymerase function): dose-dependent suppression of luciferase activity

## O=C([O-])Cc1c[nH]c2ccc(O)cc12.[K+] [Compound 5106705]
[3]
  PAN Endonuclease Inhibition Postive: Y

## O=C1C=CC(=NS(=O)(=O)c2ccc(Cl)cc2)C=C1Cl [Compound 5158517]
[3]
  PAN Endonuclease Inhibition Postive: Y

## O=C1C=CC(=O)C(C(=CNCc2ccccc2)[N+](=O)[O-])=C1 [Compound 5261378]
[3]
  PAN Endonuclease Inhibition Postive: Y

## Nc1c(C(=O)O)cc(O)c2c1C(=O)c1ccccc1C2=O [Compound 5302115]
[3]
  PAN Endonuclease Inhibition Postive: Y
Influenza H1N1 virus [5]
  Anti-H1N1 Positive: Y

## CN(C)c1ccc(C=C2SC(=NN=C3C(=O)Nc4ccccc43)NC2=O)cc1 [Compound 5404571]
[3]
  PAN Endonuclease Inhibition Postive: Y
Influenza H1N1 virus [5]
  Anti-H1N1 Positive: Y

## Oc1c(Br)cc(C=NNc2nc3ccccc3s2)c(O)c1Br [Compound 5482349]
[3]
  PAN Endonuclease Inhibition Postive: Y
Influenza H1N1 virus [5]
  Anti-H1N1 Positive: Y

## C=CCN1C(=O)C(=Cc2cccn2-c2cccc([N+](=O)[O-])c2)C(=O)NC1=S [Compound 5987504]
[3]
  PAN Endonuclease Inhibition Postive: Y
Influenza H1N1 virus [5]
  Anti-H1N1 Positive: Y

## O=C1C(=O)c2ccccc2C(Cl)=C1Cl [Compound 6304348]
[3]
  PAN Endonuclease Inhibition Postive: Y

## Nc1c(C(=O)O)cc(O)c2c1C(=O)c1ccccc1C2=O [PA-24]
Influenza H1N1 virus [5]
  Selectivity Index (CC50/IC50): 129
  plaque number reduction: reduce the plaque number in a dose-dependent manner
  IC50: 1400 ± 300 nM
MTT cytotoxicity assay
  CC50: 180 ± 15 µM

## CN(C)c1ccc(/C=C2\S/C(=N\N=C3\C(=O)Nc4ccccc43)NC2=O)cc1 [PA-30]
[1]
  inhibition of viral replication: inhibited viral replication of all tested subtypes of influenza virus in a dose-dependent manner
Influenza H1N1 virus [2]
  reduction in supernatant viral titer: 2–3 log
[3]
  IC50 compared with that of DPBA: lower IC50s
PAN protein
  Kd: 1300 nM
Influenza H1N1 virus [5]
  Selectivity Index (CC50/IC50): > 200
  plaque number reduction: reduce the plaque number in a dose-dependent manner
  IC50: 1500 ± 200 nM
MTT cytotoxicity assay
  CC50: > 300 µM

## Oc1c(Br)cc(/C=N/Nc2nc3ccccc3s2)c(O)c1Br [PA-35]
Influenza H1N1 virus [5]
  Selectivity Index (CC50/IC50): 58
  plaque number reduction: reduce the plaque number in a dose-dependent manner
  IC50: 1300 ± 500 nM
MTT cytotoxicity assay
  CC50: 75 ± 23 µM

## C=CCN1C(=O)/C(=C\c2cccn2-c2ccc([N+](=O)[O-])cc2)C(=O)NC1=S [PA-48]
Influenza H1N1 virus [5]
  Selectivity Index (CC50/IC50): 10
  plaque number reduction: reduce the plaque number in a dose-dependent manner
  IC50: 2000 ± 100 nM
MTT cytotoxicity assay
  CC50: 20 ± 5 µM

## CC(=O)N[C@H]1[C@H]([C@H](O)[C@H](O)CO)OC(C(=O)O)=C[C@@H]1N=C(N)N [zanamivir, reference compound]
Influenza H1N1 virus [4]
  intracellular and supernatant vRNA when added at 1 h p.i. and maintained: reduced the vRNA in the supernatant but not inside the cells
